Assay results reported in patent US20230266302A1, “SYNTHESIS AND USE OF N-BENZYL SULFONAMIDES” (THE UNIVERSITY OF TULSA, priority 2020, published 2023).

Tests used:
Experiment in all cases: ATP level assay (CellTiter-Glo), percent of control
Type in all cases: cell-based
[1] = test system: BxPC3 (pancreatic cancer); settings: two hour incubation; for activity at 100 µM: Homo sapiens, BXPC-3, 2 h, compound alone, control DMSO, read-out: POC (percent of control) BxPC3
From the text: (§1) In the present method, the method of using the available assays has been modified to measure the short-term effect of compounds of interest on ATP levels in the cells. […] In the modified method, the control and test cells are initially treated with the metabolic inhibitor for a period of about thirty minutes to about four hours. Typically, the treatment of the cells with the metabolic inhibitor is for one hour prior to adding the compound to be screened for anti-cancer properties. However, simultaneous treatment with the metabolic inhibitor and the compound being screened should provide satisfactory results. […] ATP synthesis in cells occurs over multiple biochemical pathways. These pathways are very responsive to metabolic inhibitors and/or changes in available nutrients. By incorporating a metabolic inhibitor which is known to impact certain pathways, the disclosed method provides for measurement of a compound's direct effects on the remaining metabolic pathways available for ATP synthesis in the cell.
(§2) Following treatment of the control and test cells with the metabolic inhibitor, the method calls for addition of the compound to be screened for anti-cancer properties to the cells. Following addition of the compound of interest, the assay is allowed to continue for about one hour to about four hours or depending on the luminescing agent up to eighteen hours. However, approximately 60 minutes will be sufficient to determine the ATP inhibiting effect of the compound to be screened on the cells. Following completion of the selected time period, the ATP level within the cell is determined. ATP levels can be determined by luminescence according to standard measuring procedures, i.e. the luminescence level of the assay from the living cells treated with the two component composition is compared to the luminescence level of the assay from the living cells without the two component composition, i.e., the control experiment. Thus, the ATP levels are determined without killing the cells during the incubation of the cells in the presence of the compound of interest. As a result, the measured reduction in ATP level corresponds directly to the inhibition of the metabolic pathways uninhibited by the metabolic blocker.
(§3) A wide variety of ATP luminescing detection reagents are available commercially. So long as the reagent produces a luminescence in the presence of ATP, the reagent will be suitable for use in the present method. Suitable reagents include but are not limited to any ATP dependent luciferase such as but not limited to firefly luciferase, other modified luciferase based reagents, i.e. luciferase derivatives. According to the rapid method for determining the anti-cancer activity of a compound, a sample of living cells is distributed across a number of testing wells. Typically, 96-well plates are used; however, the number of wells is not critical to the current method. When using a 96-well plate the number of living cells will commonly be about 20,000. The sample wells contain a cell growth medium to promote cell health and growth and an additive to prevent bacterial contamination of the wells. One common example of the cell growth medium is DMEM with 10% FBS as described above. One example of the additive to prevent bacterial contamination is a solution of penicillin G and streptomycin referred to commonly as Pen-Strep. The Pen-Strep solution typically contains 5000 units of penicillin G and 5000 micrograms of streptomycin. Thus, the rapid determination of anti-cancer compounds can be carried out using the following method. • The desired number of cells are distributed in a 96-well plate containing 100 μL DMEM plus 10% FBS with optional Pen-Strep. • After 24 hours, cells are treated with the compound of interest or a 5% solution of dimethyl sulfoxide (DMSO) in water as a control. • The time period for exposure to the compound of interest and the DMSO control will vary depending on the luminescing detection reagent. […]

SkBr3 (breast cancer) = settings: two hour incubation; for activity at 100 µM: Homo sapiens, SK-BR-3, 2 h, compound alone, control DMSO, read-out: POC (percent of control) SkBr3
From the text: as §1, §2, §3

PC3 (prostate cancer) = settings: two hour incubation; for activity at 100 µM: 2 h, compound alone, control DMSO, read-out: POC (percent of control) PC3
From the text: as §1, §2, §3

H293 (kidney cancer) = settings: two hour incubation; for activity at 100 µM: 2 h, compound alone, control DMSO, read-out: POC (percent of control) H293
From the text: as §1, §2, §3

[2] = test system: MCF10A (non-cancerous breast); settings: two hour incubation; for activity at 100 µM: Homo sapiens, MCF-10A, 2 h, compound alone, control DMSO, read-out: POC (percent of control) MCF10A
From the text: as §1, §2, §3

MCF7 (breast cancer) = settings: two hour incubation; for activity at 100 µM: Homo sapiens, MCF7, 2 h, compound alone, control DMSO, read-out: POC (percent of control) MCF7
From the text: as §1, §2, §3

HeLa (cervical cancer) = settings: two hour incubation; for activity at 100 µM: Homo sapiens, HeLa, 2 h, compound alone, control DMSO, read-out: POC (percent of control) HeLa
From the text: as §1, §2, §3

HDF (normal cells) = settings: two hour incubation; for activity at 100 µM: 2 h, compound alone, control DMSO, read-out: POC (percent of control) HDF
From the text: as §1, §2, §3

NCI-H196 (lung cancer) = settings: two hour incubation; for activity at 100 µM: NCI-H196, 2 h, compound alone, control DMSO, read-out: POC (percent of control) NCI-H196
From the text: as §1, §2, §3

T47D (breast cancer) = settings: two hour incubation; for activity at 100 µM: Homo sapiens, T47D, 2 h, compound alone, control DMSO, read-out: POC (percent of control) T47D
From the text: as §1, §2, §3

MDA-MB (breast cancer) = settings: two hour incubation; for activity at 100 µM: 2 h, compound alone, control DMSO, read-out: POC (percent of control) MDA-MB
From the text: as §1, §2, §3

[3] = compound 100 uM + rotenone (approximately 1.25 μM)
[4] = compound 100 uM + 2DG (about 10-20 mM)

Structure (SMILES)	activity at 100 µM [1] [%]	POC (percent of control) BxPC3 [1, 3]	activity at 100 µM (SkBr3 (breast cancer)) [%]	POC (percent of control) SkBr3 (SkBr3 (breast cancer); [4])	POC (percent of control) SkBr3 (SkBr3 (breast cancer); [3])	activity at 100 µM (PC3 (prostate cancer)) [%]	POC (percent of control) PC3 (PC3 (prostate cancer); [4])	POC (percent of control) PC3 (PC3 (prostate cancer); [3])	activity at 100 µM (H293 (kidney cancer)) [%]	POC (percent of control) H293 (H293 (kidney cancer); [4])	POC (percent of control) H293 (H293 (kidney cancer); [3])	activity at 100 µM [2] [%]	POC (percent of control) MCF10A [2, 4]	POC (percent of control) MCF10A [2, 3]	activity at 100 µM (MCF7 (breast cancer)) [%]	POC (percent of control) MCF7 (MCF7 (breast cancer); [4])	POC (percent of control) MCF7 (MCF7 (breast cancer); [3])	activity at 100 µM (HeLa (cervical cancer)) [%]	POC (percent of control) HeLa (HeLa (cervical cancer); [4])	POC (percent of control) HeLa (HeLa (cervical cancer); [3])	other results
Cc1ccc(S(=O)(=O)NCc2c[nH]c3ccccc23)cc1 [Compound 1, N-[(1H-indol-3-yl)methyl]-4-methylbenzenesulfonamide]	97.1	86.6% of control	97.7	72.9% of control	91.2% of control	91.7	57.3% of control	72.6% of control	92.8	48.2% of control	69% of control	73.3	86.7% of control	69% of control	103	86.8% of control	79.6% of control	95	66.3% of control	78.7% of control	activity at 100 µM (HDF (normal cells)): 98.5%; POC (percent of control) HDF (HDF (normal cells); [4]): 85% of control; POC (percent of control) HDF (HDF (normal cells); [3]): 107.7% of control; activity at 100 µM (NCI-H196 (lung cancer)): 90.8%; POC (percent of control) NCI-H196 (NCI-H196 (lung cancer); [4]): 68.8% of control; POC (percent of control) NCI-H196 (NCI-H196 (lung cancer); [3]): 83.2% of control; activity at 100 µM (T47D (breast cancer)): 53.2%; POC (percent of control) T47D (T47D (breast cancer); [4]): 43.2% of control; POC (percent of control) T47D (T47D (breast cancer); [3]): 76.6% of control; activity at 100 µM (MDA-MB (breast cancer)): 78.1%; POC (percent of control) MDA-MB (MDA-MB (breast cancer); [4]): 62% of control; POC (percent of control) MDA-MB (MDA-MB (breast cancer); [3]): 80.5% of control
O=S(=O)(NCc1c[nH]c2ccccc12)c1ccccc1 [Compound 3, N-[(1H-indol-3-yl)methyl]benzenesulfonamide]	96.8	84.5% of control	72.8	79.4% of control	97.1% of control	85	59.4% of control	65.1% of control	74.3	42.8% of control	69.3% of control	62.5	72.7% of control	110.5% of control	105	74.5% of control	97.3% of control	99.2	67.6% of control	85.5% of control	activity at 100 µM (HDF (normal cells)): 84.5%; POC (percent of control) HDF (HDF (normal cells); [4]): 72.7% of control; POC (percent of control) HDF (HDF (normal cells); [3]): 91.9% of control; activity at 100 µM (NCI-H196 (lung cancer)): 89.6%; POC (percent of control) NCI-H196 (NCI-H196 (lung cancer); [4]): 55% of control; POC (percent of control) NCI-H196 (NCI-H196 (lung cancer); [3]): 89.2% of control; activity at 100 µM (T47D (breast cancer)): 34.9%; POC (percent of control) T47D (T47D (breast cancer); [4]): 37.1% of control; POC (percent of control) T47D (T47D (breast cancer); [3]): 58.7% of control; activity at 100 µM (MDA-MB (breast cancer)): 92.4%; POC (percent of control) MDA-MB (MDA-MB (breast cancer); [4]): 81.8% of control; POC (percent of control) MDA-MB (MDA-MB (breast cancer); [3]): 102.7% of control
CC(=O)n1cc(CNS(=O)(=O)c2ccc(Cl)cc2)c2ccccc21 [Compound 4, N-[(1-acetyl-1H-indole-3-yl)methyl]-4-chlorobenzenesulfonamide]	88.4	71.1% of control	79.1	87.5% of control	96.8% of control	93.7	61.9% of control	61.3% of control	88.6	60% of control	65.8% of control	59.7	84.8% of control	89.8% of control	108	82.2% of control	79.2% of control	90.6	67.4% of control	84.3% of control	activity at 100 µM (HDF (normal cells)): 88.1%; POC (percent of control) HDF (HDF (normal cells); [4]): 66.8% of control; POC (percent of control) HDF (HDF (normal cells); [3]): 88.6% of control; activity at 100 µM (NCI-H196 (lung cancer)): 72.5%; POC (percent of control) NCI-H196 (NCI-H196 (lung cancer); [4]): 49.6% of control; POC (percent of control) NCI-H196 (NCI-H196 (lung cancer); [3]): 61.5% of control; activity at 100 µM (T47D (breast cancer)): 48.9%; POC (percent of control) T47D (T47D (breast cancer); [4]): 36.3% of control; POC (percent of control) T47D (T47D (breast cancer); [3]): 45.8% of control; activity at 100 µM (MDA-MB (breast cancer)): 94.7%; POC (percent of control) MDA-MB (MDA-MB (breast cancer); [4]): 63.6% of control; POC (percent of control) MDA-MB (MDA-MB (breast cancer); [3]): 71.9% of control
Cc1cccc2[nH]cc(CNS(=O)(=O)c3ccccc3)c12 [Compound 7, N-[(4-methyl-1H-indol-3-yl)methyl]benzenesulfonamide]	86.3	79.1% of control	108	76.2% of control	88.2% of control	95	59.4% of control	82% of control	93.2	60.9% of control	65.3% of control	66	64.5% of control	97.9% of control	107	91.6% of control	75.9% of control	91	70.6% of control	79.5% of control	POC (percent of control) BxPC3 [1, 4]: 60.9% of control; activity at 100 µM (HDF (normal cells)): 87.7%; POC (percent of control) HDF (HDF (normal cells); [4]): 60.8% of control; POC (percent of control) HDF (HDF (normal cells); [3]): 77.9% of control; activity at 100 µM (NCI-H196 (lung cancer)): 84.9%; POC (percent of control) NCI-H196 (NCI-H196 (lung cancer); [4]): 70.1% of control; POC (percent of control) NCI-H196 (NCI-H196 (lung cancer); [3]): 77.7% of control; activity at 100 µM (T47D (breast cancer)): 46.5%; POC (percent of control) T47D (T47D (breast cancer); [4]): 40.1% of control; POC (percent of control) T47D (T47D (breast cancer); [3]): 66% of control; activity at 100 µM (MDA-MB (breast cancer)): 85.6%; POC (percent of control) MDA-MB (MDA-MB (breast cancer); [4]): 81.2% of control; POC (percent of control) MDA-MB (MDA-MB (breast cancer); [3]): 102.4% of control
